Laboratory results published in US7452977B2, “Antibody to a kinase capable of site-specific phosphorylation of IκBα” (Millennium Pharmaceuticals, Inc., priority 1996, dated 2008).
One block for each molecule: values may come before it.

Legend:
IκBα kinase [1] = target: T1, IκBα kinase (Homo sapiens, UniProt O14920+O15111); test: ELISA-based IκBα kinase assay (ELISA scheme 1), MEKK1-activated partially purified kinase; assay type: biochemical; settings: 10 μM inhibitor added to activated kinase before the biotinylated peptide substrate
T1 construct: IC50 against IκBα kinase activity; FI; Km of IκBα kinase for ATP
T1 sequence (O14920 whole entry): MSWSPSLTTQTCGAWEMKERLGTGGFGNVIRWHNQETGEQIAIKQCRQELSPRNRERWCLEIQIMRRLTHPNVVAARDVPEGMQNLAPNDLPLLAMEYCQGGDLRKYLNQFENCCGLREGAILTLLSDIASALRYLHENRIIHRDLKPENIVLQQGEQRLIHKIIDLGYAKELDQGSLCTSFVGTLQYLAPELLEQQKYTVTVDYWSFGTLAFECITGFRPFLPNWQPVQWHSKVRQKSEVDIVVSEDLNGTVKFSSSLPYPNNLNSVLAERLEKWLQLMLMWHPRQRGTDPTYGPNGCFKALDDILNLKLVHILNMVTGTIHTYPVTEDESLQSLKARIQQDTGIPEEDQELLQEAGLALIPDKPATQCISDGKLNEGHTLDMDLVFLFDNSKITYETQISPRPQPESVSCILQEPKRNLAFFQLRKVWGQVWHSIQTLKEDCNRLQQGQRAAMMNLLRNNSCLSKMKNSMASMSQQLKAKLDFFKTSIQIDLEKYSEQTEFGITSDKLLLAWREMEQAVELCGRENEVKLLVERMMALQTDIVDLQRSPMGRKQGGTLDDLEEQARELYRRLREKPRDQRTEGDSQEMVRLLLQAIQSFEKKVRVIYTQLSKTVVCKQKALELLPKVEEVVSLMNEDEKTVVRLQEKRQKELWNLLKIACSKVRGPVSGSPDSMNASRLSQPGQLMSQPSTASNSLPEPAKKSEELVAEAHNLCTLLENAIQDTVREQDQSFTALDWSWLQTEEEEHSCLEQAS
T1 sequence (O15111 whole entry): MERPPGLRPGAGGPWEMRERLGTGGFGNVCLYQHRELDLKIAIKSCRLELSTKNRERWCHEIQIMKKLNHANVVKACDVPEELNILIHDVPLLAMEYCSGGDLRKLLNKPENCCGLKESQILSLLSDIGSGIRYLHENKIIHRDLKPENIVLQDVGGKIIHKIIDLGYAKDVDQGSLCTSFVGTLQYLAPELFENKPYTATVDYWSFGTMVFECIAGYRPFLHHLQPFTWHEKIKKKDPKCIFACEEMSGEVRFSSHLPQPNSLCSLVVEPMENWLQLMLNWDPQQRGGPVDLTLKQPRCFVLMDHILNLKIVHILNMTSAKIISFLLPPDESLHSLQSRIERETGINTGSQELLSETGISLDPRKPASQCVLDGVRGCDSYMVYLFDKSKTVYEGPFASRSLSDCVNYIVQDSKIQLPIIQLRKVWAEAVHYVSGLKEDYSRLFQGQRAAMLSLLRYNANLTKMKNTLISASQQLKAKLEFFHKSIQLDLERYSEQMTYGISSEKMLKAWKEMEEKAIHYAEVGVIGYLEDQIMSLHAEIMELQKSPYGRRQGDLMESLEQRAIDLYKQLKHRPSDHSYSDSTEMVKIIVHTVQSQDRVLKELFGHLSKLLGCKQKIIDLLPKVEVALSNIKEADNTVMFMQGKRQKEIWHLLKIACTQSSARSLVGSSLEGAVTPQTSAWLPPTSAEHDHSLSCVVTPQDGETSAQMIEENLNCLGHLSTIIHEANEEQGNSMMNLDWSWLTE
T1 sequence (Q9Y6K9 whole entry partner): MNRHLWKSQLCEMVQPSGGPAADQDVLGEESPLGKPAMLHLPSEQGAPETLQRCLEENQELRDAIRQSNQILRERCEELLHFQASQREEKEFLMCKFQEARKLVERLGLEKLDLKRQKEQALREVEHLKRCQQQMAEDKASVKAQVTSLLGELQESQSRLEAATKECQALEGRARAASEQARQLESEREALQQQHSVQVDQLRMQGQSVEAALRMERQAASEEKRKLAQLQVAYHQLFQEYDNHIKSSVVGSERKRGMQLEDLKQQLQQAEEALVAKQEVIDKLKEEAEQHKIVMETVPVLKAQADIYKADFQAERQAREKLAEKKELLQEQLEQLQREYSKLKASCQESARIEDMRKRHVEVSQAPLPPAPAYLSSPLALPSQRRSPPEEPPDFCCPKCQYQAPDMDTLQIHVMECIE
Description: IκBα kinase was prepared by first diluting S-100 HeLa cell extracts [1:10] with 50 mM HEPES pH 7.6 and 40% ammonium sulfate was added for 30 minutes on ice. Collected pellet was redissolved to a minimum volume, centrifuged, and filtered through a 0.22 μm filter. Sample was loaded onto a Superose-6 FPLC column equilibrated with 50 mM HEPES pH 7.6. 25 mM NaCl, 1 mM DTT, operated at 4° C. at 1 mL/min flow rate. Fractions were assayed for activity by the gel-shift assay. Active fractions peaked at ˜700 kD were collected, pooled, and protein concentration was determined.
ELISA scheme 1—Biotinylated peptide substrate at 500 μM was incubated with partially purified kinase alone, with 30 nM MEKK1Δ alone, or in combination for 2 hrs at 37° C. with 2.5 mM ATP, 10 mM DTT, 5 μM okadaic acid in the presence or absence of inhibitor. Kinase reactions were quenched by diluting [1:50] with PBS-BTE (PBS, 0.1% BSA, 0.05% Tween-20, 20 mM EDTA). […] Color development was performed with o-phenylenediamine dihydrochloride (Sigma FAST o-PD) and signals were recorded at 450 nm. Alternatively, peroxidase reaction was quenched with 3 N HCl and signals were read at 492 nm.
When control primary antibody which recognizes all IκBα species was used, all samples containing biotinylated peptide substrate produced peroxidase activity as detected by the o-PD conversion. […]

IκBα [2] = test: Phosphorylation and ubiquitination of 35S-labeled IκBα in HeLa cell cytoplasmic extracts with okadaic acid; assay type: biochemical, human; settings: 10 μM; in the presence of okadaic acid; FIG. 9
Description: ^35S-labeled IκBα was synthesized by in vitro translation, and used as a substrate for phosphorylation (bottom panel, short exposure) and ubiquitination (top panel, long exposure) assays in HeLa cell cytoplasmic extracts in the presence of okadaic acid (Chen et al., Genes and Dev. 9:1586-1597 (1995)). Various agents were included in the reaction to test their ability to inhibit the phosphorylation and ubiquitination of IκBα.

NF-κB = test: Activation of NF-κB in vivo by agonists; assay type: cell-based; settings: agonists including PMA and ionomycin, TNF-α, and LPS
IκBα kinase [3] = test: Phosphorylation of IκBα by partially purified IκBα kinase (gel-based); assay type: biochemical, human
Description: Unless otherwise indicated, phosphorylation of IκBα was usually carried out at 37° C. for 1 hour in a reaction volume of 10 μl containing: an ATP regenerating system (50 mM Tris-HCl, pH 7.6, 5 mM MgCl2, 2 mM ATP, 10 mM creatine phosphate, 3.5 units/ml creatine kinase, 0.6 units/ml inorganic pyrophosphatase), 0.5 μl of in vitro translated ^35S-labeled IκBα, 2 μg/ml of recombinant RelA homodimer (to form complex with IκBα), 3 μM okadaic acid, 60 μM ubiquitin, 50 nM E1 (rabbit), 1 μM UBC4 (yeast) or GST-UBCh5 (human), and 0.5-3 μl of IκBα kinase containing fractions. In some experiments, HeLa fraction I (1 mg/ml) was used as a source of E2s. At the end of each reaction, SDS sample buffer was added to quench the reaction, and the samples were analyzed by SDS-PAGE (9%) followed by flourography. Phosphorylation of IκBα was quantitated by PhosphorImager analysis. Ubiquitination of IκBα has been described previously (Chen, Z. J. et al., Genes & Dev. 9:1586-1597 (1995)).

IκBα [4] = settings: previously shown (Beg 1993; Henkel 1993; Sun 1993); cited from earlier work
IκBα kinase [5] = target: T1, IκBα kinase; test: Polypeptide inhibition of 35S-IκBα phosphorylation by IκBα kinase (gel-based); assay type: biochemical; settings: ubiquitination-activated kinase, 37° C., 40 min, FIG. 20
Description: An N-terminal fragment (residues 5-72) of IκBα was expressed in E. coli as a recombinant protein containing a poly-histidine (His6) tag at the N-terminus.Protein purification was accomplished by nickel affinity chromatography. As a control, the full-length IκBα (SEQ ID NO:9; Haskill (1991) Cell 65:1281) was also expressed and purified in a similar fashion.
Recombinant full-length IκBα or IκBα (5-72) was added at indicated concentration to 10 μl of reaction mixture containing an ATP regenerating system (50 mM Tris at pH 7.6, 5 mM MgCl2, 2 mM ATP, 10 mM phosphocreatine, 3.5 U/ml creatine phosphokinase, 0.6 U/ml inorganic pyrophosphatase), 60 μM Ubiquitin, 50 nM E1, 1 μM UBC4, 0.5 μl of in vitro translated ^35S-IκBα, 0.5 μl of IκBα kinase (fraction 19 from Superdex 200 column), and 3 μM okadaic acid. After incubation at 37° C. for 40 min., the reaction was quenched by the addition of SDS sample buffer, separated by electrophoresis on 9% SDS-polyacrylamide gel, and then analyzed by fluorography.

Molecule: COC(=O)[C@@]1(O)C[C@H]2O[C@]1(C)n1c3ccccc3c3c4c(c5c6ccccc6n2c5c31)C(=O)NC4 [K252a]
inhibition of MEKK1 dependent kinase activity (IκBα kinase [1]): fully inhibited
inhibition of phosphorylation and ubiquitination of IκBα in HeLa cell extracts (IκBα [2]): Inhibit
inhibition of the activation of NF-κB in vivo (NF-κB): inhibit the activation of NF-κB in vivo
inhibition of phosphorylation of IκBα by partially purified IκBα kinase (IκBα kinase [3]): inhibits

Molecule: Cc1ccc(S(=O)(=O)N[C@@H](CCCCN)C(=O)CCl)cc1 [TLCK, Nα-p-tosyl-L-lysine chloromethyl ketone]
inhibition of phosphorylation and degradation of IκBα in vivo (IκBα [4]): inhibit

Molecule: N-tosyl-L-phenylalanine chloromethyl ketone [TPCK]
inhibition of phosphorylation and degradation of IκBα in vivo (IκBα [4]): inhibit

inhibition of phosphorylation of 35S-IκBα by purified IκBα kinase (IκBα kinase [5]): inhibition
inhibition of phosphorylation of 35S-IκBα by purified IκBα kinase (IκBα kinase [5]; listed as amino acid residues 5-72 of IκBα): selectively inhibits
B1: IκBα (5-72): N-terminal fragment (residues 5-72) of IκBα, recombinant from E. coli with N-terminal His6 tag (protein)
chain: HHHHHHAERPQEWAMEGPRDGLKKERLLDDRHDSGLDSMKDEEYEQMVKELQEIRLEPQEVPRGSEPWKQQLTE

inhibition of phosphorylation of 35S-IκBα by purified IκBα kinase (IκBα kinase [5]): inhibition
B2: full-length IκBα: recombinant full-length IκBα (SEQ ID NO:9), expressed and purified as control (protein, listed as Homo sapiens)
chain: MFQAAERPQEWAMEGPRDGLKKERLLDDRHDSGLDSMKDEEYEQMVKELQEIRLEPQEVPRGSEPWKQQLTEDGDSFLHLAIIHEEKALTMEVIRQVKGDLAFLNFQNNLQQTPLHLAVITNQPEIAEALLGAGCDPELRDFRGNTPLHLACEQGCLASVGVLTQSCTTPHLHSILKATNYNGHTCLHLASIHGYLGIVELLVSLGADVNAQEPCNGRTALHLAVDLQNPDLVSLLLKCGADVNRVTYQGYSPYQLTWGRPSTRIQQQLGQLTLENLQMLPESEDEESYDTESEFTEFTEDELPYDDCVFGGQRLTL
